Laboratory results as given in US9375416B2, “Epigallocatechin gallate tetramer and vascular endothelial function improving agent containing the same” (SUNTORY HOLDING LIMITED, priority 2008, dated 2016).

Key:
Assay type in all cases: cell-based
Settings in all cases: human umbilical vascular endothelial cells, 10 μM, 8 hours, untreated cells as control
eNOS gene = eNOS gene expression in cultured vascular endothelial cells (quantitative PCR)
From the text: (§1) With respect to the compounds of Formula (II) and Formula (III) synthesized and purified in Example 1, the effect of them on expression of a gene involved in the vascular endothelial function was studied. Furthermore, as compounds for comparison, an EGCG monomer (manufactured by Wako Pure Chemical Industries Ltd.), theaflavin, theaflavin 3-O-gallate, theaflavin 3′-O-gallate and theaflavin 3,3′-O-digallate (manufactured by Nagara Science Co., Ltd.), which are known to have a vascular endothelial function improving action.
(§2) These compounds were dissolved in sterilized dimethyl sulfoxide (DMSO, manufactured by Nacalai Tesque Inc.) to prepare a solution having a concentration of 10 mM.
(§3) These solutions were diluted 1000 fold by using HuMedia-EG2 medium (manufactured by Kurabo Industries Ltd.) to prepare a solution having a final concentration of 10 μM (the final concentration of DMSO was 0.1 V/V %). These sample solutions each were added to human umbilical vascular endothelial cells (manufactured by Kurabo Industries Ltd.) cultured in a 6-well plate in a proportion of 3 mL/well and incubated at 37° C. under 5% CO2 conditions for 8 hours.
(§4) The cells were recovered by ISOGEN (manufactured by Nippon Gene Co., Ltd.) and RNA was extracted from the cells. Furthermore, RNA was purified by RNeasy Mini Kit (QIAGEN). cDNA was synthesized by a High-Capacity cDNA reverse transcription kit (manufactured by Applied Biosystem) using the total RNA (200 ng) purified as a template and quantitative PCR was performed. Analysis was performed by comparative Ct method with a glyceraldehyde-3-phosphate dehydrogenase gene used as an internal standard. The gene expression change ratio (ratio relative to the control) of a test sample was calculated by using untreated cells as a control.

[1] = tested on: Nox4 subunit gene of NADPH oxidase; test: Expression of Nox4 subunit gene of NADPH oxidase in cultured vascular endothelial cells (quantitative PCR)
From the text: as §1, §2, §3, §4

DDAH2 gene = DDAH2 gene expression in cultured vascular endothelial cells (quantitative PCR)
From the text: as §1, §2, §3, §4

GTP-CH1 gene = GTP-CH1 gene expression in cultured vascular endothelial cells (quantitative PCR)
From the text: as §1, §2, §3, §4

O=C(OC1Cc2c(O)cc(O)c(Cc3c(O)cc(O)c4c3OC(c3cc(O)c(O)c(O)c3)C(OC(=O)c3cc(O)c(O)c(O)c3)C4)c2OC1c1cc(O)c(O)c(O)c1)c1cc(O)c(O)c(O)c1 (centres unmarked) [oolong homobisflavan-A, oolong homobisflavan A]
do not substantially change: expression of the eNOS gene (gene expression change ratio relative to the control) (eNOS gene) | expression of Nox4 subunit gene of NADPH oxidase (gene expression change ratio relative to the control) [1] | expression of the DDAH2 gene (gene expression change ratio relative to the control) (DDAH2 gene) | expression of the GTP-CH1 gene (gene expression change ratio relative to the control) (GTP-CH1 gene)

O=C(OC1Cc2c(cc(O)c(Cc3c(O)cc(O)c4c3OC(c3cc(O)c(O)c(O)c3)C(OC(=O)c3cc(O)c(O)c(O)c3)C4)c2O)OC1c1cc(O)c(O)c(O)c1)c1cc(O)c(O)c(O)c1 (centres unmarked) [oolong homobisflavan-B]
do not substantially change: expression of the eNOS gene (gene expression change ratio relative to the control) (eNOS gene) | expression of Nox4 subunit gene of NADPH oxidase (gene expression change ratio relative to the control) [1] | expression of the DDAH2 gene (gene expression change ratio relative to the control) (DDAH2 gene) | expression of the GTP-CH1 gene (gene expression change ratio relative to the control) (GTP-CH1 gene)

O=C(O[C@@H]1Cc2c(cc(O)c(Cc3c(O)cc4c(c3O)C[C@@H](OC(=O)c3cc(O)c(O)c(O)c3)[C@@H](c3cc(O)c(O)c(O)c3)O4)c2O)O[C@@H]1c1cc(O)c(O)c(O)c1)c1cc(O)c(O)c(O)c1 [oolong homobisflavan-C]
do not substantially change: expression of the eNOS gene (gene expression change ratio relative to the control) (eNOS gene) | expression of Nox4 subunit gene of NADPH oxidase (gene expression change ratio relative to the control) [1] | expression of the DDAH2 gene (gene expression change ratio relative to the control) (DDAH2 gene) | expression of the GTP-CH1 gene (gene expression change ratio relative to the control) (GTP-CH1 gene)

O=C(O[C@@H]1Cc2c(O)cc(O)cc2O[C@@H]1c1cc(O)c(O)c(O)c1-c1c([C@H]2Oc3cc(O)cc(O)c3C[C@H]2OC(=O)c2cc(O)c(O)c(O)c2)cc(O)c(O)c1O)c1cc(O)c(O)c(O)c1 [theasinensin A]
do not substantially change: expression of the eNOS gene (gene expression change ratio relative to the control) (eNOS gene) | expression of Nox4 subunit gene of NADPH oxidase (gene expression change ratio relative to the control) [1] | expression of the DDAH2 gene (gene expression change ratio relative to the control) (DDAH2 gene) | expression of the GTP-CH1 gene (gene expression change ratio relative to the control) (GTP-CH1 gene)

(−)-epigallocatechin-3-O-gallate [EGCG monomer]
do not substantially change: expression of the eNOS gene (gene expression change ratio relative to the control) (eNOS gene) | expression of Nox4 subunit gene of NADPH oxidase (gene expression change ratio relative to the control) [1] | expression of the DDAH2 gene (gene expression change ratio relative to the control) (DDAH2 gene) | expression of the GTP-CH1 gene (gene expression change ratio relative to the control) (GTP-CH1 gene)
